The term melting point denotes the temperature of the solid-liquid transition. `CCCCNC(=O)c1cn2nc(N3CCN(C(=O)c4ccccc4C(F)(F)F)CC3)ccc2n1` [Example 1.6, 6-[4-(2-TRIFLUOROMETHYLBENZOYL)PIPERAZIN-1-YL]IMIDAZO[1,2-B]PYRIDAZINE-2-CARBOXYLIC ACID BUTYLAMIDE] yielded a melting point of 187 to 189 °C.

As for `CCCCCNC(=O)c1cn2nc(N3CCN(C(=O)c4ccccc4C(F)(F)F)CC3)ccc2n1`, the melting point was 179 to 180 °C.

With `O=C(Nc1ccc(F)cc1)c1cn2nc(N3CCN(C(=O)c4ccccc4C(F)(F)F)CC3)ccc2n1` [Example 1.9, 6-[4-(2-TRIFLUOROMETHYLBENZOYL)PIPERAZIN-1-YL]-IMIDAZO[1,2-B]PYRIDAZINE-2-CARBOXYLIC ACID (4-FLUOROPHENYL)AMIDE], the melting point is 115 to 117 °C.

The compound `O=C(NCc1ccc(F)cc1)c1cn2nc(N3CCN(C(=O)c4ccccc4C(F)(F)F)CC3)ccc2n1` [Example 1.8, 6-[4-(2-TRIFLUOROMETHYLBENZOYL)PIPERAZIN-1-YL]IMIDAZO[1,2-B]PYRIDAZINE-2-CARBOXYLIC ACID 4-FLUOROBENZYLAMIDE] yielded a melting point of 205 to 207 °C.

Turning to `O=C(Nc1ccc(Cl)cn1)c1cn2nc(N3CCN(C(=O)c4ccccc4C(F)(F)F)CC3)ccc2n1` [Example 1.7, 6-[4-(2-TRIFLUOROMETHYLBENZOYL)PIPERAZIN-1-YL]IMIDAZO[1,2-B]PYRIDAZINE-2-CARBOXYLIC ACID (5-CHLOROPYRIDIN-2-YL)AMIDE], the melting point fell in the range of 265 to 268 °C.

Values taken from patent US7547698B2, “Bicyclic heterocyclic derivatives and their use as inhibitors of stearoyl-coadesaturase (SCD)” (Xenon Pharmaceuticals Inc., priority 2004, dated 2009).
